Assay results reported in patent publication US12679825B2, “Crystalline and amorphous forms of a δ-opioid modulator” (Trevena, Inc., priority 2020, dated 2026).
Values after ≈ are worked out from the molar mass of the structure shown.

Experiment: Approximate solubility by solvent addition technique
Assay type: physicochemical
Conditions: heating to 40° C. between solvent aliquots; for Approximate Solubility: 20° C.; for solubility: 20 °C, thermodynamic from solid
Experimental: The approximate solubility values of the amorphous free base in the selected solvent systems (see Table 1) was estimated by the solvent addition technique. The following procedure was used for the study: • Approximately 10 mg of material was weighed out into 18×2 mL push-cap vials. • Each solvent/solvent mixture was added to the appropriate vial in 5 volume aliquots (50 μL) until either 1 mL of solvent had been added or until the material dissolved. • In between additions, the sample was stirred at 40° C. • If 1000 μL of solvent was added without dissolution of the material, solubility was calculated to be below this point. • Once addition was complete, all experiments were temperature cycled between 40° C. and 5° C. (1 h hold; 0.1° C./min ramp/cool) for ca. 21 h. • Residual solids were isolated by centrifugation (0.22 μm nylon filter) or by decanting the mother liquor and analyzed by XRPD. • Anti-solvent addition (ASA) at 20° C. was carried out on solutions, followed by further temperature cycling for 21 h. • Any solids were then isolated by centrifugation (0.22 μm nylon filter) or by decanting the mother liquor and analyzed by XRPD. • Experiments which remained solutions had further AS added at 20° C. and were temperature cycled for a further 21 h. • Residual solids were isolated by centrifugation (0.22 μm nylon filter) or by decanting the mother liquor and analyzed by XRPD. • Selected isolated material was dried under vacuum at ambient temperature (ca. 20° C.) for ca. 19-21 h then re-analyzed by XRPD. • Selected dried solids were analyzed by PLM, TG/DSC, DSC, ^1H NMR spectroscopy and HPLC. • Further details can be found in Table 1.
The approximate solubility values of the amorphous free base in a range of different solvent systems was determined at ambient temperature, with heating to 40° C. between solvent aliquots. The solutions and slurries obtained were then used in initial small-scale crystallization trials (see Table 1 for details). […] The material formed gel in water. • Oiling was observed after ASA to experiments carried out in acetone, acetonitrile, DMSO, ethanol, MEK and 2-propanol. • Gum formed after ASA to experiments carried out in anisole, dichloromethane, ethyl acetate, 2-Me THF, toluene, ethanol:water 75:25 v/v and methanol:water 77:23 v/v. • After further temperature cycling, solids were obtained from experiments carried out using tBME, MEK and THF as the initial solvent system. […] (peak at 97° C.) during the first heat. A glass transition with a mid-point half-height of ca. 32° C. was observed during the first cool. […] The residual tBME could not be quantified, due to overlapping signals with the API. Residual heptane was observed, equal to 0.46% w/w, or 0.02 equivalents. • See Table 2 for further details.
Approximate solubility studies were carried out using the amorphous free base in a range of different solvent systems at 20° C., heating to 40° C. between additions of solvent aliquots. […] Poor solubility (≤10 mg/mL) was obtained in water, tBME and heptane, giving limited options for antisolvents. Once the solubility screen was complete, the residual slurries and solutions were temperature cycled, with anti-solvent addition then carried out where experiments remained solutions. […] Poorly crystalline material was isolated from 2-propanol:heptane 20:80 v/v %. Amorphous, or predominantly amorphous material was recovered from 7 experiments, using heptane, dichloromethane:heptane 20:80 v/v %, ethyl acetate:heptane 22:78 v/v %, 2-Me THF:heptane 38:62 v/v %, toluene:heptane 38:62 v/v %, ethanol:water 34:66 v/v % and methanol:water 48:52 v/v %. The remaining experiments yielded gel or oil.

With COCCOc1cccc([C@@H]2CCN(CCn3cccc3)[C@H](C)[C@H]2COc2ccc3c(c2)C(=O)NC3)c1 [free base, (−)-6-{[(trans,trans)-4-[3-(2-methoxyethoxy)phenyl]-2-methyl-1-[2-(1H-pyrrol-1-yl)ethyl]piperidin-3-yl]methoxy}-2,3-dihydro-1H-isoindol-1-one] the “Approximate Solubility” value (2-Methyl THF) was over 200 mg/mL, the “Approximate Solubility” value (2-Propanol) was over 200 mg/mL and the solubility (2-methyl THF, organic solvent or mixture) was over 200 mg/mL. For the same compound, the solubility (2-propanol, organic solvent or mixture) was over 200 mg/mL, the “Approximate Solubility” value (Acetone) was over 200 mg/mL and the “Approximate Solubility” value (Acetonitrile) was over 200 mg/mL. For the same compound, the “Approximate Solubility” value (Anisole) was over 200 mg/mL, the solubility (DMSO, organic solvent or mixture) was over 200 mg/mL and the “Approximate Solubility” value (DMSO) was over 200 mg/mL. For the same compound, the “Approximate Solubility” value (Dichloromethane) was over 200 mg/mL, the “Approximate Solubility” value (Ethanol) was over 200 mg/mL and the “Approximate Solubility” value (Ethyl acetate) was over 200 mg/mL. The solubility (MEK (methyl ethyl ketone), organic solvent or mixture, MEK) was over 200 mg/mL, the “Approximate Solubility” value (MEK) was over 200 mg/mL and the “Approximate Solubility” value (Methanol) was over 200 mg/mL. The solubility (THF, organic solvent or mixture) was over 200 mg/mL, the “Approximate Solubility” value (THF) was over 200 mg/mL and the “Approximate Solubility” value (Toluene) was over 200 mg/mL. The solubility (acetone, organic solvent or mixture) was over 200 mg/mL, the solubility (acetonitrile, organic solvent or mixture) was over 200 mg/mL and the solubility (anisole, organic solvent or mixture) was over 200 mg/mL. For the same compound, the solubility (dichloromethane, organic solvent or mixture) was over 200 mg/mL, the solubility (ethanol, organic solvent or mixture) was over 200 mg/mL and the solubility (ethanol:water 75:25 v/v, aqueous with cosolvent or surfactant or cyclodextrin, Ethanol:Water 75:25 v/v) was over 200 mg/mL. The solubility (ethyl acetate, organic solvent or mixture) was over 200 mg/mL, the solubility (heptane, organic solvent or mixture) was at most 10 mg/mL and the solubility (methanol, organic solvent or mixture) was over 200 mg/mL. The solubility (methanol:water 77:23 v/v, aqueous with cosolvent or surfactant or cyclodextrin, Methanol:Water 77:23 v/v) was 50 mg/mL (≈ 99.3 mM), the solubility (tBME, organic solvent or mixture) was at most 10 mg/mL and the solubility (toluene, organic solvent or mixture) was over 200 mg/mL. The solubility (water) was at most 10 mg/mL.
